This is an account of results in PMC3385512 (Science Translational Medicine, 2012).

The target in experiment [1] is Ba/F3 cells expressing EML4-ALK L1196M (Homo sapiens, UniProt Q9HC35+Q9UM73, L1196M). In words: Ba/F3 cell survival assay. It is filed as cell-based. Particulars: without IL-3.
For experiment [2], the target named is T1, Ba/F3 cells expressing EML4-ALK G1202R (Homo sapiens, UniProt Q9HC35+Q9UM73, G1202R).
T1 sequence (Q9HC35+Q9UM73 with tags, fused parts or gaps Q9UM73:G1202R): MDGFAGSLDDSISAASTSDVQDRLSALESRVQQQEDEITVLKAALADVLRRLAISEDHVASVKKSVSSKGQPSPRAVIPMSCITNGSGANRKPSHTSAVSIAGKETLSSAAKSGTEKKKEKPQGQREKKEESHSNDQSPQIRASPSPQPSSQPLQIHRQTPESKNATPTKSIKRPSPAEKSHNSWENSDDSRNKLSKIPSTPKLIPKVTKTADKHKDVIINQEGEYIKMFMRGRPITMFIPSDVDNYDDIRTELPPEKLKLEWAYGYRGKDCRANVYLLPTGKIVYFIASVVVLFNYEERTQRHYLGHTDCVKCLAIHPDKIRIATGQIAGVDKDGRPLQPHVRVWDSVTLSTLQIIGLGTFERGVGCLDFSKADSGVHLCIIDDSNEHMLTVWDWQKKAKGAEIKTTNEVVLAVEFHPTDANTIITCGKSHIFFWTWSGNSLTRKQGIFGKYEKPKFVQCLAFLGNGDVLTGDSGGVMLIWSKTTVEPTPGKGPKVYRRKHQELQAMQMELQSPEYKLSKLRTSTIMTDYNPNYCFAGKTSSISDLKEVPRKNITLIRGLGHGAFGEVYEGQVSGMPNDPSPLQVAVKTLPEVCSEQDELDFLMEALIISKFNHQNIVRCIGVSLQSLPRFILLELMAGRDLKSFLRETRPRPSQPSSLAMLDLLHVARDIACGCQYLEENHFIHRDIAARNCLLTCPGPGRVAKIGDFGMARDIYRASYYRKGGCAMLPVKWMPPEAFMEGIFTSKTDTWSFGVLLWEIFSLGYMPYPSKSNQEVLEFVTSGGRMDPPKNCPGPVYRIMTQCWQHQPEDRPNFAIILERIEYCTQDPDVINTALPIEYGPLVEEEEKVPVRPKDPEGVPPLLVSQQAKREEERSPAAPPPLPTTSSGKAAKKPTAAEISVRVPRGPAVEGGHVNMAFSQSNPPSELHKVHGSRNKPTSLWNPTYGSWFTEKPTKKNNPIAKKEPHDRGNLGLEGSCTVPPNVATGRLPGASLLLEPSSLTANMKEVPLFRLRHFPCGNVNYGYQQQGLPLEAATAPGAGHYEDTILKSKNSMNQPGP
In words: Ba/F3 cell survival assay. It is filed as cell-based.

In experiment [3] the target is T2, Ba/F3 cells expressing EML4-ALK S1206Y (Homo sapiens, UniProt Q9HC35+Q9UM73, S1206Y).
T2 sequence (Q9HC35+Q9UM73 with tags, fused parts or gaps Q9UM73:S1206Y): T1 sequence (Q9HC35+Q9UM73 with tags, fused parts or gaps Q9UM73:G1202R) with R641G, S645Y
In words: Ba/F3 cell survival assay. It is filed as cell-based. Particulars: without IL-3.

In experiment [4] the target is Ba/F3 cells expressing EML4-ALK 1151Tins (Homo sapiens, UniProt Q9HC35+Q9UM73, DUP1151-1151). In words: Ba/F3 cell survival assay. Particulars: Ba/F3 EML4-ALK 1151Tins, without IL-3. It is filed as cell-based.
Experiment [5] concerns parental, IL-3-dependent Ba/F3 cells. In words: Ba/F3 cell survival assay. It is filed as cell-based, murine. Particulars: parental Ba/F3 cells cultured with IL-3 (off-target toxicity control).
Experiment [6] relates to phosphorylation of EML4-ALK. In words: phospho-ALK immunoblotting in Ba/F3 cells. It is filed as cell-based. Conditions: all Ba/F3 lines expressing wild-type or mutant EML4-ALK. For orientation: A western blot detects proteins with antibodies after separation by electrophoresis.
In another experiment the test system is H3122 CR2 cells. In words: cell survival assay. It counts as cell-based.
For experiment [7], the system named is H3122 CR3 cells. In words: cell survival assay. It counts as cell-based. Conditions: for sensitivity in cell survival assay: H3122 CR3 (no ALK mutation, EGFR activation), gefitinib 2 μM in combination.
The target of experiment [8] is Ba/F3 cells expressing wild-type EML4-ALK (Homo sapiens, UniProt Q9HC35+Q9UM73). In words: Ba/F3 cell survival assay. Particulars: without IL-3. It is filed as cell-based.
Experiment [9] concerns the target ALK (V1058-P1620) wild type (Homo sapiens, UniProt Q9UM73). In words: in vitro kinase assay. It counts as biochemical. Conditions: in vitro kinase assay data, tables S1 and S2.
Experiment [10] relates to H3122 cells. In words: cell survival assay. It counts as cell-based. Particulars: parental H3122 cells (EML4-ALK variant 1).
The test system of experiment [11] is H3122 cells. In words: apoptosis assay. It is filed as cell-based. Conditions: parental H3122, 1 μM crizotinib, 72 hours.
The subject of another experiment is MGH006 cells. Conditions: from crizotinib-naive ALK-positive NSCLC patient.
Experiment [12] has as its system H3122 CR3 cells. Conditions: H3122 CR3, 1 μM crizotinib, 2 μM gefitinib or the combination, 72 hours.
Another experiment deals with H3122 CR1 cells. In words: cells. Particulars: Homo sapiens, NCI-H3122, 72 h.
The test system of experiment [13] is KIT-overexpressing H3122 cells. Particulars: imatinib 1 μM with crizotinib 1 μM and SCF 100 ng/ml.

In general, IC50 refers to the concentration at which inhibition is half-maximal. A higher IC50 goes with weaker potency.

Sequence of ALK (V1058-P1620) wild type (Q9UM73 1058-1620): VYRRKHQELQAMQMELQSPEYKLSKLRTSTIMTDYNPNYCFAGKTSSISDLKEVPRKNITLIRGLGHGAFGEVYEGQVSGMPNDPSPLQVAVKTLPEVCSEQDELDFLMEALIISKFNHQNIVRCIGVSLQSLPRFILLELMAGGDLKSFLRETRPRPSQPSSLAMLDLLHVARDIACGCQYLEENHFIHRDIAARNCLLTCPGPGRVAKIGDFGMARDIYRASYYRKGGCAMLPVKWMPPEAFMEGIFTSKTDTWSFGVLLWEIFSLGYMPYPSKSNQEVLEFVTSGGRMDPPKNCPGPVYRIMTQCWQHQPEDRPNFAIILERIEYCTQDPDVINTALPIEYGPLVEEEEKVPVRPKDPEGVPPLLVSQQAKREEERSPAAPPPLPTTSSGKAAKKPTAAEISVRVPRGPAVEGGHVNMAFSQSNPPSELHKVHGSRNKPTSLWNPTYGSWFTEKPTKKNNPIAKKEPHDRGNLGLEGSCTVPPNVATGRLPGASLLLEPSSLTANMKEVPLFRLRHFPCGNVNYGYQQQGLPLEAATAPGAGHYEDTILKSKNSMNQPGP

For `C=CCNC1=C2C[C@@H](C)C[C@H](OC)[C@H](O)[C@@H](C)/C=C(\C)[C@H](OC(N)=O)[C@@H](OC)/C=C\C=C(/C)C(=O)NC(=CC1=O)C2=O` [17-AAG, 17-allylamino-17-demethoxygeldanamycin], the “potency / resistance in cell survival assay” value in [1] is recorded as “highly active”; in experiment [2] (Ba/F3 EML4-ALK G1202R, without IL-3), “highly active”; in experiment [3], “highly active”; in experiment [4], “highly active”. Besides, the “activity in cell survival assay” value in [5] is recorded as “at relatively low concentrations”. Further, the “effect on phospho-ALK and total ALK protein levels” value in experiment [6] is “decreased both phospho-ALK and total ALK protein levels”. Further, the “sensitivity in cell survival assay” value in the experiment with H3122 CR2 cells (H3122 CR2 (1151Tins)) was “highly susceptible”; in the experiment on H3122 CR3 cells [7], “resistant”.
In the case of `COc1cc(N2CCC(N3CCN(C)CC3)CC2)ccc1Nc1ncnc(Nc2ccccc2S(=O)(=O)C(C)C)n1` [ASP-3026], the “potency in cell survival assay” value in experiment [8] was “not as potent as crizotinib and CH5424802”. In addition, the “shift in IC50 compared to wild-type ALK (fold)” value in [2] (Ba/F3 EML4-ALK G1202R relative to wild-type) is “fourfold”. In experiment [9], the “potency and selectivity against wild-type ALK in vitro” value is “relatively potent and selective”.
In the case of `COc1cc(N2CCC(N3CCN(C)CC3)CC2)ccc1Nc1ncc(Cl)c(Nc2ccccc2S(=O)(=O)C(C)C)n1` [NVP-TAE684], the “activity in cell survival assay” value in [5] is “less effective”.
As to `C[C@@H](Oc1cc(-c2cnn(C3CCNCC3)c2)cnc1N)c1c(Cl)ccc(F)c1Cl` [crizotinib], the “sensitivity in cell survival assay” value with H3122 cells [10] is listed as “highly sensitive”; in the experiment with H3122 CR3 cells [7], “resistant”; in the experiment on MGH006 cells it was “sensitive”. Further, the concentration for half-maximal inhibition (IC50) was over 1000 nM in the experiment with H3122 CR2 cells (Homo sapiens, NCI-H3122, 72 h); over 1000 nM in the experiment on H3122 CR3 cells [7] (Homo sapiens, NCI-H3122, 72 h); over 1000 nM in the experiment on H3122 CR1 cells. The “induction of apoptosis” value in the experiment with H3122 cells [11] was “marked apoptosis”; in the experiment on H3122 CR3 cells [12], “failed to induce apoptosis”.
As for `COc1cc2ncnc(Nc3ccc(F)c(Cl)c3)c2cc1OCCCN1CCOCC1` [gefitinib], the “sensitivity in cell survival assay” value in the experiment with H3122 CR3 cells [7] is given as “resistant”. In the experiment on H3122 CR3 cells [12], the “induction of apoptosis” value is listed as “failed to induce apoptosis”.
With `Cc1ccc(NC(=O)c2ccc(CN3CCN(C)CC3)cc2)cc1Nc1nccc(-c2cccnc2)n1` [imatinib], in experiment [13], the “effect on crizotinib-resistant phenotype” value is “completely reversed the resistant phenotype”.
